Values of other authors in paper PMC8473701.

Experiment: not told

Structure (SMILES)	log partition 1-octanol / water	log partition hexadecane / water	log partition aniline / water	log partition chloroform / water	log partition octanol / water
CC1CCCC1	3.37 log10	3.99 log10	–	–	–
CCCl	–	1.22 log10	1.481 log10	–	–
CCC(C)C	–	3.76 log10	2.880 log10	–	–
COc1cccc(O)c1	–	-1.08 log10	–	0.77 log10	1.58 log10
CC(C)C	–	3.11 log10	2.488 log10	–	–
ClCCl	1.25 log10	1.06 log10	1.562 log10	2.00 log10	1.25 log10
Cc1cnccn1	–	-0.79 log10	–	1.04 log10	0.23 log10
